This is an account of results in ChEMBL document CHEMBL1156812, “Novel synthesis of the hexahydroimidazo[1,5b]isoquinoline scaffold: application to the synthesis of glucocorticoid receptor modulators” (J Med Chem, 2010).

In one experiment the target is T1, Androgen receptor (Homo sapiens, UniProt P10275).
T1 sequence (P10275 whole entry): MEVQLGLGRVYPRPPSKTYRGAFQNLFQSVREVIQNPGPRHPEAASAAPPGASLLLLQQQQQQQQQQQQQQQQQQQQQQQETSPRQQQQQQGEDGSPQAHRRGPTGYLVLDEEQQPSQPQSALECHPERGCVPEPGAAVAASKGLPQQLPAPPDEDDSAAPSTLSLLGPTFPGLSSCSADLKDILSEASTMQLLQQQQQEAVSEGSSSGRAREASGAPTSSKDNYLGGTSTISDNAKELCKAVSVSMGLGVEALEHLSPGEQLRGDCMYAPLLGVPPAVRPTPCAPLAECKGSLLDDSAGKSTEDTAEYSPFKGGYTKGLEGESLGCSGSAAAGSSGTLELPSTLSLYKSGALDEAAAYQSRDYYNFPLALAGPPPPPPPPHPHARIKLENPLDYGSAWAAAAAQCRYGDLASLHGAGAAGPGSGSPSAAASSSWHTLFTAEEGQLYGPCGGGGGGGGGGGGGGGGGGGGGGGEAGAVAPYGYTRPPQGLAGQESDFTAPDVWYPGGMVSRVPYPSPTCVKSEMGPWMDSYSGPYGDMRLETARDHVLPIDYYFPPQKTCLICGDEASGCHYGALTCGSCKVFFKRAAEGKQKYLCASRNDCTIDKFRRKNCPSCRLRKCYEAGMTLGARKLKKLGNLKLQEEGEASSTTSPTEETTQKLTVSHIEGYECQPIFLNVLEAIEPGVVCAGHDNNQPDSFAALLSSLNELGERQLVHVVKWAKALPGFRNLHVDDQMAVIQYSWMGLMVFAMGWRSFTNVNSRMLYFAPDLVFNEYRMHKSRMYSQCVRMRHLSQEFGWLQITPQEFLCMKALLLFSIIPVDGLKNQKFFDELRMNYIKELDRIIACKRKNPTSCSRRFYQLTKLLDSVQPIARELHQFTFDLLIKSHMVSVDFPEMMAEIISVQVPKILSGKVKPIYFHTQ
The experiment can be described thus: Binding affinity to androgen receptor.

The target in experiment [1] is T2, Glucocorticoid receptor (Homo sapiens, UniProt P04150).
T2 sequence (P04150 whole entry): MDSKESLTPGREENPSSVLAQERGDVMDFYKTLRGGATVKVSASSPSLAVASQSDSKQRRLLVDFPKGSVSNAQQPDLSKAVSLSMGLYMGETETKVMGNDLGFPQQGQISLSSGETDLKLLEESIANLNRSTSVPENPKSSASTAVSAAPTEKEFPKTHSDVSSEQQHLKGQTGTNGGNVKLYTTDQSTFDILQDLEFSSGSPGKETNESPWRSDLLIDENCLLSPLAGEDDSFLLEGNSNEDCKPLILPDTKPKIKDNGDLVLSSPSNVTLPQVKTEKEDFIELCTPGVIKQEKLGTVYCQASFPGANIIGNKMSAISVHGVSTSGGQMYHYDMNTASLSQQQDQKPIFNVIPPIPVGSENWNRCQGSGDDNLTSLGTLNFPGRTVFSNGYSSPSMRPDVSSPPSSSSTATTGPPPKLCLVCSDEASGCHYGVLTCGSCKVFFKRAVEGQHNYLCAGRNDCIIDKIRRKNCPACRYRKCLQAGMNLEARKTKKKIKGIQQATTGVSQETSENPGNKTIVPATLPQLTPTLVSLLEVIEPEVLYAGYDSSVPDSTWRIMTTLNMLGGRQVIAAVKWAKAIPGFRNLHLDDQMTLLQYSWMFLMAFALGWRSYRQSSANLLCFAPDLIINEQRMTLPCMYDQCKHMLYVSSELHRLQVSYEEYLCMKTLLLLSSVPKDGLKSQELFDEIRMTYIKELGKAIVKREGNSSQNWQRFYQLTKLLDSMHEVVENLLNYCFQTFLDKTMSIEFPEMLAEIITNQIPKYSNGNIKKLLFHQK
The experiment can be described thus: Displacement of GS-red from human glucocorticoid receptor by fluorescent polarization assay.

In experiment [2] the target is T2, Glucocorticoid receptor. The experiment can be described thus: Transrepression activity at glucocorticoid receptor expressed in human A549 cells assessed as inhibition of PMA-induced AP1 activity after 6 hrs by luciferase reporter gene assay. It is filed as cell-based.
For experiment [3], the target named is T2, Glucocorticoid receptor. The experiment can be described thus: Transactivation of GAL-4 tagged glucocorticoid receptor ligand binding domain expressed in human HeLa cells assessed as NP1 activation by luciferase reporter gene assay. It is filed as cell-based.
The target of experiment [4] is T2, Glucocorticoid receptor. The experiment can be described thus: Transrepression activity at glucocorticoid receptor expressed in human A549 cells assessed as inhibition of IL-1-beta-induced NF-kappaB dependent E-selection promoter activation after 6 hrs by luciferase reporter gene based ELAM assay. It is filed as cell-based.

Bounds are passed on as bounds.

One may read the IC50 as the point on the concentration scale where inhibition reaches its midpoint. A low value points to inhibition by little substance. The term Ki denotes a dissociation constant, usually derived from enzyme kinetics or from competition with a known ligand. `C[C@]12Cc3cnn(-c4ccc(F)cc4)c3C=C1CCC[C@@H]2[C@](C)(O)c1ccsc1` displayed an IC50 on Androgen receptor of over 4 µM. The compound further came in with an inhibition constant Ki at Glucocorticoid receptor [1] of 0.0008 µM.
`C[C@]12Cc3cnn(-c4ccc(F)cc4)c3C=C1CCC[C@@H]2[C@](C)(O)c1ccc(F)cc1` came in with an IC50 at Androgen receptor of over 4 µM. In addition, on Glucocorticoid receptor [1], the Ki amounted to 0.0025 µM.
In general, EC50 refers to the concentration at which the effect is half-maximal. `CCCC[C@@](C)(O)[C@H]1CCCC2=Cc3c(-c4ccc(F)cc4)ncn3C[C@@]21C`: the concentration for half-maximal inhibition (IC50) at Androgen receptor is over 4 µM. For the same compound, the results for the EC50 on Glucocorticoid receptor [2], on Glucocorticoid receptor [3] and on Glucocorticoid receptor [4] were 0.034 µM, 1.13 µM and 0.13 µM, respectively. The Ki at Glucocorticoid receptor [1] was 0.0079 µM.
On the same counts, the results for `Cc1cccc([C@@](C)(O)[C@H]2CCCC3=Cc4c(-c5ccc(F)cc5)ncn4C[C@@]32C)c1` are over 4 µM, 0.0095 µM, 1.13 µM, 0.099 µM and 0.0025 µM.
`C[C@]12Cn3cnc(-c4ccc(F)cc4)c3C=C1CCC[C@@H]2[C@](C)(O)c1cccc(C#N)c1` gave a half-inhibitory concentration (IC50) on Androgen receptor of over 4 µM. The 50% effective concentration (EC50) is 0.018 µM at Glucocorticoid receptor [2], over 10 µM at Glucocorticoid receptor [3] and 0.031 µM at Glucocorticoid receptor [4]. This compound yielded a Ki on Glucocorticoid receptor [1] of 0.001 µM.
On Androgen receptor, `CO[C@](C)(c1cccs1)[C@H]1CCCC2=Cc3c(-c4ccc(F)cc4)ncn3C[C@@]21C` displayed an IC50 of over 4 µM. Also, the concentration for a half-maximal effect (EC50) at Glucocorticoid receptor [2] and at Glucocorticoid receptor [4] was over 5 µM in each case. For the same compound, on Glucocorticoid receptor [1], the affinity, expressed as Ki, was 0.033 µM.
At Androgen receptor, `C[C@]12Cn3cnc(-c4ccc(F)cc4)c3C=C1CCC[C@@H]2[C@](C)(O)c1ccncc1` came in with a concentration for half-maximal inhibition (IC50) of over 4 µM.
In the case of `CC(C)C[C@@](C)(O)[C@H]1CCCC2=Cc3c(-c4ccc(F)cc4)ncn3C[C@@]21C`, on Androgen receptor, the IC50 is over 4 µM. The EC50 on Glucocorticoid receptor [2] is 0.132 µM; at Glucocorticoid receptor [3] it was 0.876 µM; on Glucocorticoid receptor [4], 0.133 µM. The Ki on Glucocorticoid receptor [1] stood at 0.009 µM.
Compound `C[C@]12Cn3cnc(-c4ccc(F)cc4)c3C=C1CCC[C@@H]2[C@](C)(O)CCc1ccccc1` displayed an IC50 on Androgen receptor of over 4 µM.
In turn, `C[C@]12Cn3cnc(-c4ccc(F)cc4)c3C=C1CCC[C@@H]2[C@](C)(O)c1ccsc1` returned an IC50 at Androgen receptor of over 4 µM. Moreover, the EC50 on Glucocorticoid receptor [2] is 0.005 µM; on Glucocorticoid receptor [3] it was over 10 µM; on Glucocorticoid receptor [4], 0.037 µM. Moreover, the Ki on Glucocorticoid receptor [1] came to 0.001 µM.
`C[C@]12Cn3cnc(-c4ccc(F)cc4)c3C=C1CCC[C@@H]2[C@](C)(O)C(F)(F)F` came in with an IC50 at Androgen receptor of over 4 µM. The values for the EC50 on Glucocorticoid receptor [2] and on Glucocorticoid receptor [3] were 0.031 µM and over 10 µM, respectively. On Glucocorticoid receptor [1], this compound yielded a Ki of 0.0052 µM.
In turn, `C[C@]12Cn3cnc(-c4ccc(F)cc4)c3C=C1CCC[C@@H]2[C@](C)(O)Cc1ccc(F)cc1` registered an IC50 at Androgen receptor of over 4 µM. In addition, the EC50 at Glucocorticoid receptor [2] is 0.227 µM; at Glucocorticoid receptor [3], 0.76 µM; on Glucocorticoid receptor [4] it was 0.121 µM. The affinity at Glucocorticoid receptor [1] corresponds to a Ki of 0.011 µM.
On to `C[C@]12Cn3cnc(-c4ccc(F)cc4)c3C=C1CCC[C@@H]2[C@](C)(O)c1nccs1`, for which the IC50 at Androgen receptor is over 4 µM. Further, the EC50 turned out to be 0.11 µM at Glucocorticoid receptor [2], 0.572 µM on Glucocorticoid receptor [3] and 0.092 µM at Glucocorticoid receptor [4]. The compound further gave a Ki at Glucocorticoid receptor [1] of 0.003 µM.
On Androgen receptor, `C[C@]12Cn3cnc(-c4ccc(F)cc4)c3C=C1CCC[C@@H]2[C@](C)(O)c1ccccc1` displayed an IC50 of over 4 µM. Further, the EC50 on Glucocorticoid receptor [2] is 0.016 µM; at Glucocorticoid receptor [3], over 5 µM; on Glucocorticoid receptor [4], 0.061 µM. The same compound gave a Ki on Glucocorticoid receptor [1] of 0.001 µM.
For `C[C@]12Cn3cnc(-c4ccc(F)cc4)c3C=C1CCC[C@@H]2[C@](C)(O)C1CCCCC1`, the IC50 at Androgen receptor is over 4 µM. Besides, the figures for the EC50 at Glucocorticoid receptor [2], at Glucocorticoid receptor [3] and on Glucocorticoid receptor [4] were 0.002 µM, 0.47 µM and 0.033 µM, respectively. In addition, the affinity at Glucocorticoid receptor [1], expressed as Ki, was 0.0031 µM.
`Cc1ccc([C@@](C)(O)[C@H]2CCCC3=Cc4c(-c5ccc(F)cc5)ncn4C[C@@]32C)s1`: the IC50 at Androgen receptor was over 4 µM. Moreover, the EC50 came out at 0.028 µM on Glucocorticoid receptor [2], 0.272 µM at Glucocorticoid receptor [3] and 0.018 µM at Glucocorticoid receptor [4]. The compound also yielded an inhibition constant Ki at Glucocorticoid receptor [1] of 0.0015 µM.
On Androgen receptor, `C[C@]12Cn3cnc(-c4ccc(F)cc4)c3C=C1CCC[C@@H]2[C@](C)(O)C1CCOCC1` gave an IC50 of over 4 µM.
For the compound `C[C@]12Cc3cnn(-c4ccc(F)cc4)c3C=C1CCCC2[C@@H](O)c1csc2ccccc12` (stereo not given in full), the EC50 on Glucocorticoid receptor [2] worked out at 0.0018 µM. Further, on Glucocorticoid receptor [1], the inhibition constant (Ki) was found to be 0.0018 µM.
On Androgen receptor, `C[C@]12Cn3cnc(-c4ccc(F)cc4)c3C=C1CCC[C@@H]2[C@](C)(O)c1ccc(C#N)cc1` yielded an IC50 of over 4 µM. Also, the half-maximal effective concentration (EC50) was 0.059 µM on Glucocorticoid receptor [2], over 10 µM on Glucocorticoid receptor [3] and 0.105 µM at Glucocorticoid receptor [4]. In addition, on Glucocorticoid receptor [1], affinity was put at a Ki of 0.0025 µM.
The compound `Cc1ccccc1[C@@](C)(O)[C@H]1CCCC2=Cc3c(-c4ccc(F)cc4)ncn3C[C@@]21C` yielded an IC50 at Androgen receptor of over 4 µM. For the same compound, the EC50 turned out to be 0.025 µM on Glucocorticoid receptor [2], 0.92 µM at Glucocorticoid receptor [3] and 0.031 µM at Glucocorticoid receptor [4]. Also, the Ki on Glucocorticoid receptor [1] worked out at 0.002 µM.
On Androgen receptor, `C[C@]12Cn3cnc(-c4ccc(F)cc4)c3C=C1CCC[C@@H]2[C@](C)(O)c1ccc(F)cc1` had an IC50 of over 4 µM. Besides, the EC50 is 0.02 µM on Glucocorticoid receptor [2] and 0.044 µM on Glucocorticoid receptor [4]. In addition, the Ki on Glucocorticoid receptor [1] was determined as 0.002 µM.
With `C[C@]12Cn3cnc(-c4ccc(F)cc4)c3C=C1CCC[C@@H]2[C@](C)(O)c1cccnc1`, at Androgen receptor, the IC50 is over 4 µM.
`C=CC[C@H](O)C1CCCC2=Cc3c(cnn3-c3ccc(F)cc3)C[C@@]21C` (stereo not given in full) showed an IC50 at Androgen receptor of over 4 µM. Further, the EC50 on Glucocorticoid receptor [2] was 0.0093 µM. The Ki at Glucocorticoid receptor [1] came to 0.0039 µM.
As for `C[C@]12Cn3cnc(-c4ccc(F)cc4)c3C=C1CCC[C@@H]2[C@](C)(O)c1ccccn1`, at Androgen receptor, the IC50 was over 4 µM.
Compound `C[C@]12Cn3cnc(-c4ccc(F)cc4)c3C=C1CCC[C@@H]2[C@](C)(O)C1CC1` had an IC50 at Androgen receptor of over 4 µM. Further, the figures for the EC50 on Glucocorticoid receptor [2], on Glucocorticoid receptor [3] and at Glucocorticoid receptor [4] were 0.037 µM, over 5 µM and 0.049 µM, respectively. On Glucocorticoid receptor [1], the affinity, expressed as Ki, was 0.0026 µM.
With `C=CCC(O)C1CCCC2=Cc3c(-c4ccc(F)cc4)ncn3CC21C` (single isomer, unassigned; diastereomer 1), the EC50 at Glucocorticoid receptor [2] was over 2.5 µM; on Glucocorticoid receptor [4] it was over 5 µM. The compound also showed a Ki on Glucocorticoid receptor [1] of 0.008 µM.
With `C=CCC(O)C1CCCC2=Cc3c(-c4ccc(F)cc4)ncn3CC21C` (single isomer, unassigned; diastereomer 2), the EC50 on Glucocorticoid receptor [2] (a549) was over 2.5 µM; on Glucocorticoid receptor [4] (a549), over 5 µM. This compound also displayed a Ki at Glucocorticoid receptor [1] of 0.009 µM.
As to `C[C@]12Cn3cnc(-c4ccc(F)cc4)c3C=C1CCC[C@@H]2[C@H](O)c1ccc(F)cc1` (stereo in doubt; 18), the EC50 at Glucocorticoid receptor [2] and at Glucocorticoid receptor [4] was over 5 µM each time. The compound further displayed a Ki at Glucocorticoid receptor [1] of 0.025 µM.
